Data on 8 compounds can be found in patent US5180840A, “Process for preparing analogs of artemisinin” (SRI International, priority 1991, dated 1993).

The subject of experiment [1] is W-2 Indochina P. falciparum clone. Nature of the experiment: in vitro testing against P. falciparum, W-2 Indochina clone. Type of experiment: cell-based. The settings on record: for IC50: Plasmodium falciparum. An excerpt: (§1) The analog 1 was sent to Walter Reed Army Institute of Research (WRAIR) for in vitro testing against P. falciparum using modifications of the procedures of Desjardins et al, 1979, and Milhous et al, 1985, (Desjardins, R. E., C. J. Canfield, D. E. Haynes, and J. D. Chulay, Antimicrob. Angents Chemother., Vol. 16, 710-718 (1979); Milhous, W. K., N. F. Weatherly, J. H. Bowdre, and R. E. Desjardins, Antimicrob. Agents Chemother. Vol. 27, 525-530, 1985.) to assess the intrinsic activity of compound 1 as an anti-malarial drug relative to simultaneous known controls such as chloroquine, mefloquine; pyrimethamine, sulfadoxine, tetracycline, qinghaosu or quinine. Since some anti-malarials are more static than cidal in action, it is necessary to extend the incubation period to assess the effects of such drugs on parasite growth rates. In order to insure exponential parasite growth and maximum uptake of radioisotope throughout the extended incubation, reduced starting parasitemias (0.2%) and reduced red cell hematocrits (1.0%) are required. As a result, drugs which are actively incorporated into erythrocytes (such as chloroquine or qinghaosu) will have slightly lower 50% inhibitory concentrations than in other assay systems employing higher red cell hematocrits. Except for the contribution from the 10% normal pooled human plasma and added 10^-10 M (0.014 ng/ml) PABA, the culture medium is folate-free. The trace amount of PABA insures exponential growth of the sulfonamide-susceptible parasite clone without antagonizing the activity of antifol anti-malarials.
(§2) All test compounds are solubilized in DMSO and diluted 400-fold (to rule out a DMSO effect) in culture medium with plasma for a starting concentration of at least 12,500 ng/ml. Drugs are subsequently diluted fivefold using the Cetus Pro/Pette™ system utilizing a range of concentrations from 0.8 ng/ml to 12,500 ng/ml. Fifty percent inhibitory concentrations are reported in ng/ml.
(§3) Table 1 summarizes differences in the susceptibility profiles of the two control P. falciparum clones (Oduola, A. M. J., N. F. Weatherly, J. H. Bowdre, R. E. Desjardins, Thirty-second Annual Meeting, American Society of Tropical Medicine and Hygiene, San Antonio, Tex., Dec. 4-8, 1983) and provides results of testing. The W-2 Indochina P. falciparum clone is resistant to chloroquine, pyrimethamine and sulfadoxine but […]. The D-6 African P. falciparum clone is susceptible to chloroquine, pyrimethamine and sulfadoxine but […].

For experiment [2] the test system is unchanged. The settings on record: W-2 Indochina clone; cited from earlier work.
Experiment [3] deals with D-6 African P. falciparum clone. Particulars: D-6 African clone; cited from earlier work.
Experiment [4] shares this test system. The experiment in a line: in vitro testing against P. falciparum, D-6 African clone. It is filed as cell-based.
Excerpt: as §1, §2, §3

The next experiment deals with P. falciparum. Nature of the experiment: in vitro testing against P. falciparum (two strains together / assay medium). Type of experiment: cell-based.
Excerpt: as §1, with “Except for the contribution from the 10% normal pooled human plasma and added 10^-10 M (0.014 ng/ml) PABA, the culture medium is folate-free. The trace amount of PABA insures exponential growth of the sulfonamide-susceptible parasite clone without antagonizing the activity of antifol anti-malarials.” left out

Where [5] appears, read: Plasmodium falciparum, D-6 African clone (strain head not given; assigned), read-out: IN VITRO ED50 (fifty percent inhibitory concentration).
[6] abbreviates: Plasmodium falciparum, D-6 African clone (strain head not given; assigned), read-out: IN VITRO ED50 (fifty percent inhibitory concentration), × 10^-9 M.

Structures are written as SMILES. Where two headings read alike, the source gives them in different places.

Turning to `CCN(CC)CCCC(C)Nc1ccnc2cc(Cl)ccc12` (stereo not drawn) [Chloroquine], the IC50 was determined as 26.8 ng/mL in experiment [1] (read-out: IN VITRO ED50 (fifty percent inhibitory concentration), ng/ml); 52.1 nM in experiment [1] (read-out: IN VITRO ED50 (fifty percent inhibitory concentration), × 10^-9 M); 5.91 ng/mL in experiment [4] (Plasmodium falciparum, read-out: IN VITRO ED50 (fifty percent inhibitory concentration), ng/ml); 11.5 nM in experiment [4] (Plasmodium falciparum, read-out: IN VITRO ED50 (fifty percent inhibitory concentration), × 10^-9 M). The entries for the “susceptibility of the clone” value in experiment [2] and in experiment [3] were “resistant” and “susceptible”, respectively.
Regarding `COc1ncnc(NS(=O)(=O)c2ccc(N)cc2)c1OC` [sulfadoxine], the “susceptibility of the clone” value in experiment [2] is reported as “resistant”; in experiment [3], “susceptible”.
As for `OC(c1cc(C(F)(F)F)nc2c(C(F)(F)F)cccc12)C1CCCCN1` (stereo not drawn) [Mefloquine], the results for the “susceptibility of the clone” value in experiment [2] and in experiment [3] were “susceptible” and “resistant”, respectively. The IC50 in experiment [4] (setting [5]) was determined as 22.2 ng/mL; in experiment [4] (setting [6]) it was 53.7 nM.
In the case of `C[C@@]12CC[C@H]3CCC[C@H]4CC(=O)O[C@H](O1)[C@@]34OO2` (relative stereo) [Compound 1, (±)-13,14-desmethylartemisinin], the “potency relative to chloroquine” value in experiment [1] (W-2 Indochina strain) is on record as “about three times as potent as the classical antimalarial agent chloroquine”. Besides, the “activity relative to the natural product Qinghaosu” value in experiment [1] (W-2 Indochina strain, fraction as active as Qinghaosu) is given as “approximately 1/2”. The “antimalarial activity (in words)” value with P. falciparum (data of Table 1) is recorded as “highly active antimalarial agent”. Moreover, the antimalarial potency entry with P. falciparum (varies with strain, versus the other five compounds) is “still in the nanogram range”. The IC50 was 21.1 ng/mL in experiment [4] (setting [5]) and 83 nM in experiment [4] (setting [6]).
For the compound `CCc1nc(N)nc(N)c1-c1ccc(Cl)cc1` [pyrimethamine], the “susceptibility of the clone” value in experiment [2] was “resistant”; in experiment [3] it was “susceptible”.
Turning to `C[C@@H]1CC[C@H]2[C@@H](C)C(=O)O[C@@H]3O[C@@]4(C)CC[C@@H]1[C@]32OO4` [Qinghaosu, artemisinin], the IC50 is 3.09 ng/mL in experiment [4] (setting [5]) and 11 nM in experiment [4] (setting [6]).
Take `C[C@@H]1CC[C@H]2[C@@H](C)C(O)O[C@@H]3O[C@@]4(C)CC[C@@H]1[C@]32OO4` (stereo partly drawn) [Dihydro-quinghaosu]: the IC50 in experiment [4] (setting [5]) was found to be 0.47 ng/mL; in experiment [4] (setting [6]) it was 1.68 nM.
With `CCO[C@H]1O[C@@H]2O[C@@]3(C)CC[C@H]4[C@H](C)CC[C@@H]([C@H]1C)[C@@]24OO3` [Arteether], the “IN VITRO ED50 (fifty percent inhibitory concentration)” value came to 1.23 ng/mL in experiment [1] (W-2 Indochina clone (strain head not given; assigned)) and 1.87 ng/mL in experiment [4] (D-6 African clone (strain head not given; assigned)). The IC50 in experiment [4] (D-6 African clone (strain head not given; assigned), read-out: IN VITRO ED50 (fifty percent inhibitory concentration), × 10^-9 M) was determined as 6 nM.
